Source: US6441027B1, “Method of regulating the female reproductive system through angiogenesis inhibitors” (Children's Medical Center Corporation, priority 1996, dated 2002)
Entries after “also recorded” stand apart in the source; their conditions may differ. Like-named read-outs stand apart in the source and are kept apart here.

Assays:
decidual stromal cells = assay: PCNA staining of decidua on E6; assay type: in vivo, mouse
Procedure: To test this hypothesis, mice were treated with AGM-1470 on E1 and sacrificed at E6, a time point prior to placental formation. The uteri of the mice were examined by antibodies to Factor VIII and PCNA to determine if there was any difference in the degree of endometrial angiogenesis or the proliferative response of the decidua induced by trophoblast invasion. However, in the decidua there was a 50% decrease in the proliferation of stromal cells in the AGM-1470 treated mice as compared to control (PCNA staining/X630 field in control was 48%±3, n=4, versus 24%±5, n=4, P≦0.005 in AGM-1470 treated mice. See FIG. 4A and 4B). […]
To determine the rate of cellular proliferation, staining for proliferating cell nuclear antigen (PCNA) was performed. […] Positive staining was detected by using horse radish peroxidase-conjugated secondary (Dako) and tertiary (Dako) antibodies, and DAB as a chromagen. The PCNA labeling index was determined by counting the percentage of stained cells under light microscopy within selected 630× fields. A minimum of 1,000 cells were counted for each specimen.
In experiments with AGM-1470 treatment of pregnant mice, transverse sections through embryos contained within the uterus were stained. Microvessels density was determined at the intersite endometrium and PCNA was determined in the decidual stroma. […]

[1] = 30 mg/kg s.c. every other day, greater than 100 days of therapy; cited from earlier work
endometrium = assay: Cycling mice, chronic treatment: examination of the uterus; assay type: in vivo, mouse
Procedure: Mice were randomized and received either AGM-1470 30 mg/kg s.c. or saline 0.1 ml s.c. every other day for 16 days (approximately four estrous cycles). On the last of four days of treatment mice were housed with male mice to see if successful mating and conception would occur. On day 16 mice were weighed and sacrificed by cervical dislocation. The ovaries were resected enbloc, fixed in Carnoy's fixative, and embedded in paraffin according to standard histologic techniques. Sections were cut at 6 microns and stained with hematoxylin and eosin.
To determine microvessel density, Carnoy's-fixed tissue sections were pretreated with 2 microgram/ml Proteinase K (Boehringer Mannheim, Mannheim, Germany) at 37° Celsius for 15 minutes before staining with a rabbit polyclonal antibody against mouse factor VIII (Dako, Carpinteria, Calif.). Positive staining was detected by incubating sequentially with a secondary antibody against rabbit conjugated to horseradish peroxidase (Dako) and diaminobenzidine tetrahydrochloride (DAB) (Dako) as a chromagen. Sections were counterstained with methyl green (Schmid & Co., Stuttgart, Germany) and mounted in Permount (Fisher, Fair Lawn, N.J.). Microvessel density was determined by light microscopy. Each count was expressed as the number of microvessels identified within a selected field. Ten fields per section were counted.
To determine the rate of cellular proliferation, staining for proliferating cell nuclear antigen (PCNA) was performed. Carnoy's-fixed sections were pretreated in target unmasking fluid (Signet Laboratories, Dedham, Mass.) for 10 minutes at 90° for antigen retrieval. Immunohistochemical staining was performed with an anti-PCNA murine monoclonal antibody (Signet). Positive staining was detected by using horse radish peroxidase-conjugated secondary (Dako) and tertiary (Dako) antibodies, and DAB as a chromagen. The PCNA labeling index was determined by counting the percentage of stained cells under light microscopy within selected 630× fields. A minimum of 1,000 cells were counted for each specimen.
For staining of apoptotic cells, Carnoy's-fixed sections were treated according to the protocol of the Apoptag manufacturer (Oncor, Gaithersburg, Md.) except the pretreatment step with Proteinase K was omitted. After TdT labeling of specimens, positive staining was detected with a peroxidase-labeled antibody against deoxyuridine peroxidase substrate. Sections were counterstained as described above. The apoptotic index was determined by counting the percentage of stained cells under light microscopy within selected 630× fields. A minimum of 1,000 cells was counted for each specimen.
In experiments with AGM-1470 treatment of pregnant mice, transverse sections through embryos contained within the uterus were stained. Microvessels density was determined at the intersite endometrium and PCNA was determined in the decidual stroma. In experiments with AGM-1470 treatment of non-pregnant mice, transverse sections through the endometrium were stained for factor VIII, PCNA or apoptotic cells at the level of the endometrial lumen at its widest diameter. Statistical analysis was performed with ANOVA on ranked data to account for the expected variation of endometrial angiogenesis and glandular proliferation in the control due to different phases of the estrous cycle.

female C57BL/6 mice [2] = assay type: in vivo, mouse
Procedure: Group housed female C57BL/6 mice were treated with a single injection of AGM-1470 (30 mg/kg, s.c.) and paired with male breeders at various times after treatment. Treatment groups are designated as the number of days between plugging and treatment. The 6 control groups are combined and expressed as the mean±SD. The number of matings in per group is listed below each labeled group.
The experiment was designed to detect how long before mating a single dose of AGM-1470 might be effective. Sexually mature female mice were treated with a single dose of AGM-1470 (30 mg/kg, s.c.) up to five days prior to mating [designated E(−5), E(−4), E(−3), E(−2), E(−1), or E0 with the date of plugging being E0]. For treatments on E(−5) through E(−1), group-housed female mice were injected with AGM-1470 and then individually paired with male breeders at varying times after injection. For E0 treatment, females were paired with males and then plugged females were injected. Pregnancies were monitored by maternal weights and allowed to go to term. The contraceptive efficacy of a single dose of AGM-1470 on each of these days, calculated by the percentage of matings resulting in any viable deliveries […]. The contraceptive efficacy of a single dose of AGM-1470 on each of these days, expressed as the percentage of matings resulting in viable deliveries is illustrated in FIG. 8.

female C57BL/6 mice [3] = assay: Single dose on E(-1): implantation sites 6 days after mating; assay type: in vivo, mouse; conditions: single dose 30 mg/kg s.c. on E(-1), sacrificed 6 days after mating
Procedure: (§1) FIGS. 7A and 7B show the ovaries and uteri from a control mouse or an AGM-treated mouse given a single dose of AGM-1470 on E(−1). Group housed female C57BL/6 mice were treated with a single injection of AGM-1470 (30 mg/kg, s.c.) and paired with male breeders. Mice who mated on the day after treatment were sacrificed 6 days after mating. Ovaries and uteri were removed en bloc, fixed and stained with hemotoxylin and eosin. […] Thin arrows indicate the corpora lutea.
as §1, with “In addition,” for “FIGS. 7A and 7B show”, “from” for “from a”, “and” for “mouse or an AGM-treated mouse given a”, “treatment mice were examined.” for “dose of AGM-1470 on E(−1).”, “lutea.^1 The fat arrows indicate implantation sites in control not seen in treated animal.” for “lutea.”

[4] = 30 mg/kg every other day for 16 days
[5] = 30 mg/kg every other day for 16 days, n=6
[6] = 30 mg/kg every other day for 16 days, vs control

SMILES: CO[C@@H]1[C@H](OC(=O)NC(=O)CCl)CC[C@]2(CO2)[C@H]1[C@@]1(C)O[C@@H]1CC=C(C)C [AGM-1470, O-chloroacetylcarbamoyl fumagillol]
- decrease in proliferation of decidual stromal cells vs control (decidual stromal cells; treated on E1, sacrificed E6): 50%
- PCNA staining/X630 field in decidua (decidual stromal cells; treated on E1, sacrificed E6, n=4): 24%±5
- toxicity of dosing schedule [1]: no evident toxicity
- decrease in microvessel density (Factor VIII) vs control (endometrium; [4]): 41%
- decrease in number of proliferating vessels (endometrium; [4]): 71%
- decrease in percentage of proliferating glandular epithelial cells (PCNA) (endometrium; [4]): 67%
- decrease in proliferation rate of endometrial stromal cells (PCNA) (endometrium; [4]): 68%
- number of proliferating vessels (endometrium; 30 mg/kg every other day for 16 days, n=5): 5±2 vessels/X630 field
- endometrial glands (endometrium; [5]): 3±2 glands/X250 field
- percentage of proliferating glandular epithelial cells (PCNA) (endometrium; [5]): 10%±3
- proliferation rate of endometrial stromal cells (PCNA) (endometrium; [5]): 5% ±2
- apoptotic index (Apo-Tag staining) (endometrium; [6]): not significantly different
- uterus thickness (endometrium; [6]): consistently thinner
- fewer endometrial glands than control (endometrium; 30 mg/kg s.c. every other day for 16 days): 63%
- effect on live births (female C57BL/6 mice [2]; single dose 30 mg/kg s.c. on E0): completely block live births
- effect on live births (female C57BL/6 mice [2]; single dose 30 mg/kg s.c. on E(-1)): completely block live births
- reduction of percentage of animals with successful pregnancies (female C57BL/6 mice [2]; single dose 30 mg/kg s.c. on E(-2)): 80%
- frequency of litters (female C57BL/6 mice [2]; single dose 30 mg/kg s.c. three to five days prior to mating): same frequency as controls
- number of dead births relative to controls (female C57BL/6 mice [2]; single dose 30 mg/kg s.c., any time point E(-5) to E0): No differences
- percentage of mated animals with viable births (female C57BL/6 mice [2]; single dose 30 mg/kg s.c., treatments on E0, E-1 and E-2 (FIG. 8)): inhibition of viable births
- implantation sites (female C57BL/6 mice [3]): prevented implantation; also recorded: not seen in AGM-1470 treated animal
